Laboratory results published in BigSolDB 2.1.

Cc1cc(C)c(C(=O)P(=O)(c2ccccc2)c2ccccc2)c(C)c1
solubility (mole fraction)
Conditions	in acetone	in acetonitrile	in ethanol	in ethyl acetate	in isobutanol	in isopropanol	in methanol	in methyl acetate	in n-butanol	in n-propanol
273.15 K	0.0685	0.0242	0.0761	0.043	0.0761	0.0262	0.11	0.0504	0.0795	0.0827
278.15 K	0.0844	0.0312	0.0895	0.0529	0.0882	0.0366	0.125	0.0616	0.092	0.0983
283.15 K	0.101	0.0482	0.107	0.0621	0.109	0.0544	0.145	0.0767	0.116	0.118
288.15 K	0.12	0.0687	0.13	0.0819	0.133	0.0755	0.172	0.0963	0.139	0.139
293.15 K	0.143	0.101	0.154	0.102	0.159	0.11	0.195	0.12	0.162	0.168
298.15 K	0.169	0.144	0.184	0.126	0.187	0.158	0.233	0.149	0.2	0.196
303.15 K	0.197	0.197	0.218	0.16	0.22	0.21	0.272	0.186	0.236	0.226
308.15 K	0.232	0.271	0.266	0.194	0.256	0.276	0.298	0.229	0.271	0.262
